The GI50 is the concentration that inhibits growth by half. The term TGI denotes the concentration giving total growth inhibition. A higher TGI goes with lower sensitivity of the cells.

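Tested at 5 concentrations; 48 h exposure; 96-well plates; endpoints linearly interpolated, else capped at highest concentration. At the GI50, growth is halved. The concentration for full growth arrest is given as TGI.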 Some results are limits rather than exact numbers.

Some test systems named below: CAKI-1 renal; COLO 205 colon; HOP-62 NSCLC; K-562 leukemia; MDA-MB-435; SNB-19 CNS; T-47D breast; NCI-H522 lung.
Holding throughout (test): DTP human tumour cell line panel, 48 h

`COc1ccc2c(c1)OCC1c3cc(OC)ccc3OC21` (stereo not drawn): the GI50 was 29500 nM in the experiment with CAKI-1 renal; 38.2 µM with COLO 205 colon; 95 µM with HOP-62 NSCLC; 56700 nM in the experiment on K-562 leukemia; 50.8 µM in the experiment with MDA-MB-435; > 100 µM in the experiment with SNB-19 CNS. The GI50 in the experiment with T-47D breast was 35400 nM. Moreover, the TGI in the experiment with CAKI-1 renal, in the experiment with COLO 205 colon, in the experiment with HOP-62 NSCLC, in the experiment with K-562 leukemia, with MDA-MB-435 and with SNB-19 CNS was > 100 µM in each case. For the same compound, the concentration for total growth inhibition (TGI) in the experiment with T-47D breast is > 100 µM.

On to `C=C1C(=O)O[C@H]2[C@H]1CC/C(COC(=O)NCc1ccc(Cn3c(=O)sn(CCCI)c3=O)cc1)=C\CC[C@@]1(C)O[C@@H]21`, for which the GI50 was 1700 nM with CAKI-1 renal; 1.95 µM in the experiment with COLO 205 colon; 13.5 µM with HOP-62 NSCLC; 342 nM with K-562 leukemia; 1.68 µM in the experiment on MDA-MB-435; 1070 nM in the experiment on NCI-H522 lung. The GI50 is 3.12 µM in the experiment on SNB-19 CNS and 1790 nM in the experiment on T-47D breast. For the same compound, the TGI in the experiment with CAKI-1 renal is 3.29 µM; in the experiment with COLO 205 colon, 3.66 µM; with HOP-62 NSCLC, 27.4 µM; in the experiment on K-562 leukemia, > 100 µM; in the experiment on MDA-MB-435 it was 3.3 µM; with NCI-H522 lung, 2.39 µM. Further, the TGI in the experiment with SNB-19 CNS is 13.8 µM; with T-47D breast, 3.84 µM.

Consider `N=C(N)c1ccc(-c2ccc(-c3cccs3)s2)cc1F`, for which the GI50 in the experiment with CAKI-1 renal is 1370 nM; with COLO 205 colon, 0.202 µM; in the experiment on HOP-62 NSCLC, 1.61 µM; in the experiment with K-562 leukemia it was 341 nM; in the experiment on MDA-MB-435, 1.13 µM; in the experiment on NCI-H522 lung, 1940 nM. The GI50 was 1.77 µM in the experiment on SNB-19 CNS and 1490 nM in the experiment with T-47D breast. Also, the TGI with CAKI-1 renal was determined as 2.82 µM; in the experiment with COLO 205 colon, 0.39 µM; with HOP-62 NSCLC, 3.07 µM; in the experiment with K-562 leukemia, 1.31 µM; in the experiment with MDA-MB-435, 2.37 µM; in the experiment on NCI-H522 lung it was 3.88 µM. Also, the TGI was 3.65 µM in the experiment on SNB-19 CNS and 3.48 µM in the experiment on T-47D breast.

For the compound `CC(C)OC(=O)OCOP(=O)(OCOC(=O)OC(C)C)C1CCCN(O)C1=O` (stereo not drawn), the GI50 was 3550 nM in the experiment on CAKI-1 renal; 3.71 µM in the experiment with COLO 205 colon; 2.12 µM with HOP-62 NSCLC; 810 nM with K-562 leukemia; 5.29 µM with MDA-MB-435; 768 nM in the experiment on NCI-H522 lung. Moreover, the results for the GI50 in the experiment on SNB-19 CNS and in the experiment on T-47D breast were 1.21 µM and 1980 nM, respectively. Moreover, the TGI in the experiment on CAKI-1 renal, in the experiment with COLO 205 colon, in the experiment with HOP-62 NSCLC, with K-562 leukemia, with MDA-MB-435 and in the experiment on NCI-H522 lung was > 100 µM each time. Moreover, the TGI in the experiment with SNB-19 CNS and with T-47D breast was > 100 µM in each case.

With `C=C(C)[C@@H]1CC[C@]2(C(=O)OC)CC[C@]3(C)[C@H](CC[C@@H]4[C@@]5(C)CC/C(=N\OCCC(=NCCC#N)NOCCC#N)C(C)(C)[C@@H]5CC[C@]43C)[C@@H]12`, the GI50 in the experiment with CAKI-1 renal was 10200 nM; in the experiment with COLO 205 colon, 9.02 µM; with HOP-62 NSCLC, 12.5 µM; in the experiment with K-562 leukemia it was 2230 nM; in the experiment with MDA-MB-435 it was 9.7 µM; in the experiment on NCI-H522 lung, 8340 nM. The GI50 is 12.6 µM in the experiment with SNB-19 CNS and 3470 nM in the experiment with T-47D breast. Further, the TGI with CAKI-1 renal, in the experiment on COLO 205 colon, in the experiment on HOP-62 NSCLC, in the experiment on K-562 leukemia, in the experiment on MDA-MB-435 and in the experiment on NCI-H522 lung was > 50 µM throughout. The TGI in the experiment on SNB-19 CNS and in the experiment on T-47D breast was > 50 µM throughout.

As for `O=c1c2cc(F)ccc2sc2c(NCCCNCCO)nc3ccc(F)cc3c12`, the GI50 is 1530 nM with CAKI-1 renal; 1.61 µM with HOP-62 NSCLC; 2340 nM in the experiment on K-562 leukemia; 1.71 µM in the experiment on MDA-MB-435; 1910 nM with NCI-H522 lung; 1.72 µM in the experiment with SNB-19 CNS. For the same compound, in the experiment with T-47D breast, the GI50 was 1940 nM. For the same compound, the TGI in the experiment on CAKI-1 renal came out at 2.97 µM; in the experiment on HOP-62 NSCLC, 3.53 µM; in the experiment on K-562 leukemia, 6.68 µM; with MDA-MB-435, 3.2 µM; in the experiment on NCI-H522 lung it was 4.03 µM; with SNB-19 CNS, 3.29 µM. The TGI in the experiment on T-47D breast is 4.48 µM.

Regarding `CCc1ccc2cc3c(ccc4ccccc43)c3c2c1CC3`, the GI50 with CAKI-1 renal is > 100000 nM; in the experiment on COLO 205 colon, > 100 µM; in the experiment on HOP-62 NSCLC, > 100 µM; in the experiment on K-562 leukemia, > 100000 nM; in the experiment on MDA-MB-435 it was > 100 µM; with NCI-H522 lung it was > 100000 nM. In addition, the GI50 in the experiment on SNB-19 CNS was > 100 µM; in the experiment with T-47D breast it was > 100000 nM. For the same compound, the TGI in the experiment with CAKI-1 renal, in the experiment with COLO 205 colon, with HOP-62 NSCLC, with K-562 leukemia, in the experiment with MDA-MB-435 and in the experiment with NCI-H522 lung was > 100 µM throughout. In addition, the TGI in the experiment on SNB-19 CNS and in the experiment on T-47D breast was > 100 µM in each case.

For `CC1(C)N=C(N)N=C(N)N1c1cccc(CC(=O)Nc2ccccc2)c1`, the GI50 with CAKI-1 renal is > 100000 nM; with COLO 205 colon, 47.3 µM; in the experiment with HOP-62 NSCLC it was 53.4 µM; with K-562 leukemia, 2870 nM; in the experiment with MDA-MB-435, 4.38 µM; in the experiment on NCI-H522 lung, 47500 nM. The GI50 is 39.7 µM in the experiment with SNB-19 CNS and > 100000 nM with T-47D breast. Besides, the TGI in the experiment with CAKI-1 renal, in the experiment with COLO 205 colon, in the experiment with HOP-62 NSCLC, with K-562 leukemia, in the experiment on MDA-MB-435 and with NCI-H522 lung was > 100 µM throughout. For the same compound, the TGI in the experiment with SNB-19 CNS and in the experiment on T-47D breast was > 100 µM in each case.

As for `COc1cc2nc(NC3CCC3)nc(NC3CCN(C(C)C)CC3)c2cc1OC`, the GI50 is 1590 nM in the experiment with CAKI-1 renal; 1.88 µM in the experiment on COLO 205 colon; 2.6 µM in the experiment with HOP-62 NSCLC; 902 nM in the experiment on K-562 leukemia; 1.77 µM in the experiment with MDA-MB-435; 1960 nM with NCI-H522 lung. Besides, the GI50 in the experiment on T-47D breast is 1950 nM. Also, the TGI in the experiment on CAKI-1 renal was determined as 3.17 µM; with COLO 205 colon it was 3.81 µM; in the experiment with HOP-62 NSCLC it was 11 µM; with K-562 leukemia it was 10.2 µM; in the experiment on MDA-MB-435, 3.33 µM; with NCI-H522 lung, 4.52 µM. Also, the TGI with T-47D breast amounted to 4.11 µM.

Values taken from PubChem BioAssay (NCI).
